{"source": "patent US8242240B2", "about": "“Anti-inflammatory compounds and uses thereof” (Yale University, priority 2000, dated 2012)", "key": {"NEMO": {"molecular_target": "T1, NEMO (Homo sapiens, UniProt Q9Y6K9)", "T1 construct": "bacterially expressed version of full length NEMO fused at its NH2-terminus to glutathione S-transferase; made in house; host or cells: bacteria (pGEX-4T1)", "T1 sequence (Q9Y6K9 whole entry, the tested form may be a part)": "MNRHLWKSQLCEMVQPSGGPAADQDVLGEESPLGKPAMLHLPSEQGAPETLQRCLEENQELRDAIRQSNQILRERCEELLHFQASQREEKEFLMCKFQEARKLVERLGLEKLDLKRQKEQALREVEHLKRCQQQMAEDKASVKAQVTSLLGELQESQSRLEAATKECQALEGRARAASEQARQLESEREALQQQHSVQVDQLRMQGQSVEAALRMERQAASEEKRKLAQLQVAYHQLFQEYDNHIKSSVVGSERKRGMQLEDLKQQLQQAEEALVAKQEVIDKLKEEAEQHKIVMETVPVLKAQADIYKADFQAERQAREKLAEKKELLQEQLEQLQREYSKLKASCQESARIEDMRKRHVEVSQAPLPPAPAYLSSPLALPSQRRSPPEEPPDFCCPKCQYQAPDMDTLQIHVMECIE", "experiment": "GST pull-down of IKKβ NBD mutants by GST-NEMO", "format": "binding", "settings": "GST pulldown assay; NBD mutations in IKKβ", "description": "To identify the NEMO-interacting domain of IKKβ we performed in vitro pull down assays (Zhong et al., (1997) Cell 89, 413-424) using a bacterially expressed version of full length NEMO fused at its NH2-terminus to glutathione S-transferase (GST-NEMO; FIG. 1A). Various truncation mutants lacking different functional domains of IKKβ (catalytic domain, leucine zipper and helix-loop-helix; FIG. 1A) were constructed.\nThese mutants were labeled by in vitro translation with [^35S]-methionine (input; FIG. 1B), mixed with either GST alone or GST-NEMO, and precipitated using glutathione-agarose. […]\nFurther mutations in the NBD were analyzed (see Table 1) for their ability to affect NEMO binding to IKKβ using the GST pulldown assay explained in Example 3."}, "[1]": {"system": "mice (lethal Salmonella typhimurium LPS challenge)", "experiment": "Lethal lipopolysaccharide mouse model", "format": "in vivo, male C57BL/6 mice", "description": "In this experiment, the ability of anti-inflammatory compounds of the invention to rescue mice challenged with a lethal amount of lipopolysaccharide (LPS) was assessed. LPS is a bacterial product that induces many of the responses that are seen in septic patients, including death. In this model, Salmonella typhimurium LPS in phosphate-buffered […] (PBS) was administered to male C57BL/6 mice by intravenous injection at a dose of 30 mg/kg (600 μg/20 g mouse). This dose was established in control experiments to be lethal in 100% of the mice that received it. Mice were treated with the test peptide by intravenous injection (in 1% dimethyl sulfoxide in PBS) immediately prior to the LPS injection and 24 hours after the LPS injection. Mice were monitored twice daily for up to 8 days after receiving LPS and the duration of survival and the number of surviving mice were recorded."}, "[2]": {"settings": "dose 1 mg/kg i.v., number dosed 8, LPS 30 mg/kg i.v."}, "[3]": {"settings": "dose 5 mg/kg i.v., number dosed 8, LPS 30 mg/kg i.v."}, "[4]": {"settings": "dose 5 mg/kg i.v., number dosed 7, LPS 30 mg/kg i.v."}}, "note": "Values joined by “and” are separate entries in the source; they are usually repeats but may differ in a detail not shown here. Identical values can stand only once. [ ]: non-standard residue; d: D form.", "data": [{"substance": "LAWSWL (Description of Artificial Sequence: Synthetic NBD peptide)", "values": [{"measurement": "Binds to NEMO", "setting": "NEMO", "value": "no"}]}, {"substance": "LDWSWA (Description of Artificial Sequence: Synthetic NBD peptide)", "values": [{"measurement": "Binds to NEMO", "setting": "NEMO", "value": "yes"}]}, {"substance": "H-RRMKWKKLDWSWL-NH2 [compound 6]", "values": [{"measurement": "survival (day five), number of mice surviving", "setting": "[1]; [2]", "value": 0}, {"measurement": "survival (day five), number of mice surviving", "setting": "[1]; [3]", "value": "7 and 5 and 4 and 8"}]}, {"substance": "H-YARAARRAARRLDWSWL-NH2 [compound 9]", "values": [{"measurement": "survival (day five), number of mice surviving", "setting": "[1]; [2]", "value": 0}, {"measurement": "survival (day five), number of mice surviving", "setting": "[1]; [3]", "value": "6 and 8"}]}, {"substance": "LDWEWL (Description of Artificial Sequence: Synthetic NBD peptide)", "values": [{"measurement": "Binds to NEMO", "setting": "NEMO", "value": "yes"}]}, {"substance": "H-rrrrrrrTALDWSWLQTE-NH2 (H-[dR][dR][dR][dR][dR][dR][dR]TALDWSWLQTE-NH2; SMILES CC(C)C[C@H](NC(=O)[C@H](C)NC(=O)[C@@H](NC(=O)[C@@H](CCCNC(=N)N)NC(=O)[C@@H](CCCNC(=N)N)NC(=O)[C@@H](CCCNC(=N)N)NC(=O)[C@@H](CCCNC(=N)N)NC(=O)[C@@H](CCCNC(=N)N)NC(=O)[C@@H](CCCNC(=N)N)NC(=O)[C@H](N)CCCNC(=N)N)[C@@H](C)O)C(=O)N[C@@H](CC(=O)O)C(=O)N[C@@H](Cc1c[nH]c2ccccc12)C(=O)N[C@@H](CO)C(=O)N[C@@H](Cc1c[nH]c2ccccc12)C(=O)N[C@@H](CC(C)C)C(=O)N[C@@H](CCC(N)=O)C(=O)N[C@H](C(=O)N[C@@H](CCC(=O)O)C(N)=O)[C@@H](C)O) [compound 3]", "values": [{"measurement": "survival (day five), number of mice surviving", "setting": "[1]; [4]", "value": 7}, {"measurement": "survival (day five), number of mice surviving", "setting": "[1]; [3]", "value": "5 and 8"}]}, {"substance": "H-rrmkwkkLDWSWL-NH2 (H-[dR][dR][dM][dK][dW][dK][dK]LDWSWL-NH2; SMILES CSCC[C@@H](NC(=O)[C@@H](CCCNC(=N)N)NC(=O)[C@H](N)CCCNC(=N)N)C(=O)N[C@H](CCCCN)C(=O)N[C@H](Cc1c[nH]c2ccccc12)C(=O)N[C@H](CCCCN)C(=O)N[C@H](CCCCN)C(=O)N[C@@H](CC(C)C)C(=O)N[C@@H](CC(=O)O)C(=O)N[C@@H](Cc1c[nH]c2ccccc12)C(=O)N[C@@H](CO)C(=O)N[C@@H](Cc1c[nH]c2ccccc12)C(=O)N[C@@H](CC(C)C)C(N)=O) [compound 7]", "values": [{"measurement": "survival (day five), number of mice surviving", "setting": "[1]; [3]", "value": 8}]}, {"substance": "LDWAWL", "values": [{"measurement": "Binds to NEMO", "setting": "NEMO", "value": "yes"}]}, {"substance": "LDYSWL (Description of Artificial Sequence: Synthetic NBD peptide)", "values": [{"measurement": "Binds to NEMO", "setting": "NEMO", "value": "yes"}]}, {"substance": "H-rrrrrrrLDWSWL-NH2 (H-[dR][dR][dR][dR][dR][dR][dR]LDWSWL-NH2; SMILES CC(C)C[C@H](NC(=O)[C@H](Cc1c[nH]c2ccccc12)NC(=O)[C@H](CO)NC(=O)[C@H](Cc1c[nH]c2ccccc12)NC(=O)[C@H](CC(=O)O)NC(=O)[C@H](CC(C)C)NC(=O)[C@@H](CCCNC(=N)N)NC(=O)[C@@H](CCCNC(=N)N)NC(=O)[C@@H](CCCNC(=N)N)NC(=O)[C@@H](CCCNC(=N)N)NC(=O)[C@@H](CCCNC(=N)N)NC(=O)[C@@H](CCCNC(=N)N)NC(=O)[C@H](N)CCCNC(=N)N)C(N)=O) [compound 8]", "values": [{"measurement": "survival (day five), number of mice surviving", "setting": "[1]; [2]", "value": 0}, {"measurement": "survival (day five), number of mice surviving", "setting": "[1]; [3]", "value": "7 and 8"}]}, {"substance": "LDWSFL (Description of Artificial Sequence: Synthetic NBD peptide)", "values": [{"measurement": "Binds to NEMO", "setting": "NEMO", "value": "yes"}]}, {"substance": "H-YGRKKRRQRRRLDWSWL-NH2 [compound 11]", "values": [{"measurement": "survival (day five), number of mice surviving", "setting": "[1]; [3]", "value": 6}]}, {"substance": "LDWSYL (Description of Artificial Sequence: Synthetic NBD peptide)", "values": [{"measurement": "Binds to NEMO", "setting": "NEMO", "value": "no"}]}, {"substance": "H-YARAARRAARRTALDWSWLQTE-NH2 [compound 5]", "values": [{"measurement": "survival (day five), number of mice surviving", "setting": "[1]; [2]", "value": 4}]}, {"substance": "H-YARKARRQARRTALDWSWLQTE-NH2 [compound 4]", "values": [{"measurement": "survival (day five), number of mice surviving", "setting": "[1]; [3]", "value": 0}]}, {"substance": "H-YGRKKRRQRRRTALDWSWLQTE-NH2 [compound 2]", "values": [{"measurement": "survival (day five), number of mice surviving", "setting": "[1]; [4]", "value": 7}, {"measurement": "survival (day five), number of mice surviving", "setting": "[1]; [3]", "value": 4}]}, {"substance": "H-RRMKWKKTALDWSWLQTE-NH2 [compound 1]", "values": [{"measurement": "survival (day five), number of mice surviving", "setting": "[1]; [4]", "value": 1}]}]}
